Data published in patent publication US12319655B2, “RAF kinase inhibitors and methods of use thereof” (Deciphera Pharmaceuticals, LLC, priority 2021, dated 2025).
Like-named read-outs stand apart in the source and are kept apart here.

Experiments:
[1] = target: A-Raf kinase (SEQ. ID No: 1) (Homo sapiens (Human), UniProt P10398, Y301D/Y302D); test: Biochemical Assay for A-Raf (1); conditions: Table J
In short: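 IC50 values were derived by four-parameter sigmoidal fitting of percent inhibition, calculated from reaction rates over the 4–5 h window. Absorbance at 340 nm was tracked for 6 h at 30 °C via coupled PK/LDH NADH depletion. Conditions: 1 mM ATP, 30.1 nM MEK substrate, 5.55 nM A-Raf (Y301D/Y302D), Tris pH 7.5, 1% DMSO.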

[2] = target: C-Raf kinase (SEQ. ID NO: 3) (Homo sapiens (Human), UniProt P04049, Y340D/Y341D); test: Biochemical Assay for C-Raf (1); conditions: Table J
In short: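 IC50 values come from a four-parameter fit of percent inhibition, using the reaction rate over 4–5 h of a 6 h continuous 340 nm read at 30 °C. The enzyme mix was C-Raf 0.43 nM, MEK substrate 30.1 nM and ATP 1 mM, in a PK/LDH NADH-coupled format in Tris pH 7.5 with 1% DMSO.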

Miapaca-2 cells = test: MiaPaca-2 Cell Proliferation Assay (1); format: cell-based; conditions: Homo sapiens, MIA PaCa-2, single agent, read-out: MiaPaca2 (1) IC50
In short: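 Resazurin was added after compound exposure and incubated 5-6 h, then fluorescence read at 540 nm excitation and 600 nm emission to give IC50.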

[3] = target: B-Raf kinase (SEQ. ID NO: 2) (Homo sapiens (Human), UniProt P15056); test: Biochemical Assay for B-Raf (1); conditions: Table J
In short: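 IC50 derived by four-parameter sigmoidal fit of percent inhibition, normalised to uninhibited and reference-inhibitor controls, using reaction rates over 4–5 h. Coupled spectrophotometric readout (NADH loss at 340 nm, 6 h, 30° C.); 1 mM ATP, 30.1 nM MEK, 0.13 nM B-Raf, pH 7.5 Tris buffer, 1% DMSO.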

[4] = assay version (1), read-out: ARAF (1) IC50
[5] = assay version (1), read-out: CRAF (1) IC50
[6] = assay version (1), read-out: BRAF (1) IC50
[7] = biochemical assay (1), read-out: ARAF (1)
[8] = biochemical assay (1), read-out: CRAF (1)
[9] = biochemical assay (1), read-out: BRAF (1)

Sequence of C-Raf kinase (SEQ. ID NO: 3) (P04049 307-648 Y340D/Y341D): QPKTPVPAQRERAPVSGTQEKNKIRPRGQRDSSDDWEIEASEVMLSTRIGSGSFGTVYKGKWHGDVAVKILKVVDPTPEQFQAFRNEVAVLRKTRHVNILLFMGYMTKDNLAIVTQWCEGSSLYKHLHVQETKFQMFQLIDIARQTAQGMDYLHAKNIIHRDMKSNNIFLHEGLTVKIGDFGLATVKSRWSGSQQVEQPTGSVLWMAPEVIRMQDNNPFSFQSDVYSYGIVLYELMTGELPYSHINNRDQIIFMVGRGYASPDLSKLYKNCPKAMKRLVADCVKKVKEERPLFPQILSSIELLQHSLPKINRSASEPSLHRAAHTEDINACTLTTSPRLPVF
Sequence of A-Raf kinase (SEQ. ID No: 1) (P10398 other isoform, or with tags, fused parts or gaps Y301D (already in the parent)/Y302D (already in the parent)): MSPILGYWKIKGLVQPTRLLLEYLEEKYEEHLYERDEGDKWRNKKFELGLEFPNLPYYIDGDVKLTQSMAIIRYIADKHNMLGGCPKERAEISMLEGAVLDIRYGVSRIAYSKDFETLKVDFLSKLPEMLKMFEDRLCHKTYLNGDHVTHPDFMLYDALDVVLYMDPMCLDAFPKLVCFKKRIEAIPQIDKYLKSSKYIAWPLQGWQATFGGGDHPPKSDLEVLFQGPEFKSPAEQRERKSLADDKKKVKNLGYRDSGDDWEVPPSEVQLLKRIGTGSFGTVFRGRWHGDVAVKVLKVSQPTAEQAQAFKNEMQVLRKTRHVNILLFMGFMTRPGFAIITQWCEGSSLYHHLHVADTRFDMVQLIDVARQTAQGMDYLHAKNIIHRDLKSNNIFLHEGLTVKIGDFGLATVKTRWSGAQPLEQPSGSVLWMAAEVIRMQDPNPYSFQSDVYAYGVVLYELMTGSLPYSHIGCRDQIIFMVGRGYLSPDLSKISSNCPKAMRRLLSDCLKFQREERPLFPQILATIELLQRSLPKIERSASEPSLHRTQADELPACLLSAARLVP
Sequence of B-Raf kinase (SEQ. ID NO: 2) (P15056 416-766): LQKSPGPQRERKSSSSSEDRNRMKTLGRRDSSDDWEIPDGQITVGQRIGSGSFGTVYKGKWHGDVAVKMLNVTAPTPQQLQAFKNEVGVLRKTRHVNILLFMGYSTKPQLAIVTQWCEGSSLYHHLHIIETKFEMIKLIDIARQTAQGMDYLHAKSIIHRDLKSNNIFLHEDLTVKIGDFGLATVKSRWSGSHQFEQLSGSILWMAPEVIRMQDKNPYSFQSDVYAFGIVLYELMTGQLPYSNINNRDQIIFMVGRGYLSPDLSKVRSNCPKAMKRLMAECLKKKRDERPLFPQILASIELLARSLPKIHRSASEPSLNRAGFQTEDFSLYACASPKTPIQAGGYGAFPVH

SMILES	IC50 [1, 4] [nM]	IC50 [2, 5] [nM]	IC50 (Miapaca-2 cells) [nM]	IC50 [3, 6] [nM]	IC50 [1, 7] [nM]	IC50 [2, 8] [nM]	IC50 [3, 9] [nM]
CNC(=O)c1cc(-c2cncc(-c3cc(NC(=O)c4ccnc(C(C)(C)C#N)c4)ccc3C)n2)ccn1 [Example 86]	1000 to 10000	≤ 100	1000 to 10000	100 to 500	–	–	–
COCC(=O)Nc1cc(-c2nccc(-c3cc(NC(=O)c4ccnc(C(C)(C)C#N)c4)ccc3C)n2)ccn1 [Example 88]	1000 to 10000	≤ 100	1000 to 10000	≤ 100	–	–	–
Cc1ccc(NC(=O)c2ccnc(C(C)(C)F)c2)cc1-c1cc(-c2ccnc3[nH]ncc23)cnn1 [Example 400]	–	–	–	–	1000 to 10000	≤ 100	≤ 100
CC(=O)Nc1cc(-c2cc(-c3cc(NC(=O)c4ccnc(C(F)(F)F)c4)ccc3C)nc(N(C)C)n2)ccn1 [Example 41, N-(3-(6-(2-acetamidopyridin-4-yl)-2-(dimethylamino)pyrimidin-4-yl)-4-methylphenyl)-2-(trifluoromethyl)isonicotinamide]	1000 to 10000	≤ 100	1000 to 10000	≤ 100	–	–	–
CNC(=O)c1cc(-c2cncc(-c3cc(NC(=O)c4cnn(CC(F)(F)F)c4)ccc3C)c2)ncn1 [Example 382]	–	–	–	–	1000 to 10000	≤ 100	100 to 500
Cc1cc(-c2cc(-c3cc(NC(=O)c4ccnc(C(C)(C)C#N)c4)ccc3C)ccn2)ccn1 [Example 49]	1000 to 10000	≤ 100	1000 to 10000	100 to 500	–	–	–
CNC(=O)c1cc(-c2cc(-c3cc(NC(=O)c4cccc(C(F)(F)F)c4)cnc3C)ccn2)ccn1 [Example 52]	1000 to 10000	≤ 100	1000 to 10000	100 to 500	–	–	–
CC(=O)Nc1cc(-c2cc(-c3cc(NC(=O)c4cccc(C(F)(F)F)c4)cnc3C)ccn2)ccn1 [Example 37]	1000 to 10000	≤ 100	1000 to 10000	≤ 100	–	–	–
CC(=O)Nc1cc(-c2cc(-c3cc(NC(=O)c4ccnc(C(F)(F)F)c4)ccc3C)nc(C)n2)ccn1 [Example 83]	1000 to 10000	≤ 100	1000 to 10000	≤ 100	–	–	–
CC(=O)Nc1cc(-c2cc(-c3cc(NC(=O)c4ccnc(C)c4)ccc3C)ncn2)ccn1 [Example 59]	1000 to 10000	≤ 100	1000 to 10000	≤ 100	–	–	–
Cc1ccc(NC(=O)c2cnn(CC(F)(F)F)c2)cc1-c1cncc(-c2ccnc(C(N)=O)c2)c1 [Example 381]	–	–	–	–	1000 to 10000	≤ 100	100 to 500
CC(=O)Nc1cc(-c2ccnc(-c3cc(NC(=O)c4ccnc(C(F)(F)F)c4)ccc3C)n2)ccn1 [Example 92]	100 to 500	≤ 100	1000 to 10000	≤ 100	–	–	–
Cc1ncc(NC(=O)c2ccnc(C(C)(C)C#N)c2)cc1-c1cccc(-c2ncnn3cccc23)c1 [Example 385]	–	–	–	–	1000 to 10000	100 to 500	100 to 500
CNC(=O)c1cc(-c2cc(-c3cc(NC(=O)c4ccnc(C(F)(F)F)c4)cnc3C)ccn2)ccn1 [Example 42]	1000 to 10000	≤ 100	1000 to 10000	100 to 500	–	–	–
Cc1ccc(NC(=O)c2ccnc(C(C)(C)C#N)c2)cc1-c1ccnc(-c2ccnc(NC(=O)CC#N)c2)c1 [Example 63]	500 to 1000	≤ 100	1000 to 10000	≤ 100	–	–	–
Cc1ccc(NC(=O)[C@H]2CCO[C@@H](C(C)C)C2)cc1-c1cc(-c2ccnc(NC(=O)C3CC3)c2)cnn1 [Example 388]	–	–	–	–	1000 to 10000	≤ 100	≤ 100
CNC(=O)c1cc(-c2cncc(-c3cc(NC(=O)Cn4cc(C(C)C)nn4)ccc3C)c2)ncn1 [Example 383]	–	–	–	–	1000 to 10000	100 to 500	100 to 500
Cc1ccc(NC(=O)c2cn(C(C)C)nc2C)cc1-c1cc(-c2ccnc(NC(=O)C3CC3)c2)cnn1 [Example 373]	–	–	–	–	1000 to 10000	≤ 100	≤ 100
CNC(=O)c1cc(-c2ccnc(-c3cc(NC(=O)c4ccnc(C(C)(C)C#N)c4)ccc3C)c2)ccn1 [Example 376]	–	–	–	–	1000 to 10000	≤ 100	100 to 500
CNC(=O)c1cc(-c2cncc(-c3cc(C(=O)Nc4cnn(C(C)C)c4)ccc3C)n2)ccn1 [Example 81]	1000 to 10000	100 to 500	–	100 to 500	–	–	–
Cc1ccc(NC(=O)c2cc(C3CC3)n(C)n2)cc1-c1cc(-c2ccnc(NC(=O)C3CC3)c2)cnn1 [Example 377]	–	–	–	–	1000 to 10000	≤ 100	≤ 100
CNC(=O)c1cc(-c2cnnc(-c3cc(NC(=O)CCC4(F)CC4)cnc3C)c2)ccn1 [Example 374]	–	–	–	–	1000 to 10000	1000 to 10000	1000 to 10000
CNC(=O)c1cc(-c2ccnc(-c3cc(NC(=O)CCC4(F)CC4)ccc3C)c2)ccn1 [Example 392]	–	–	–	–	1000 to 10000	100 to 500	500 to 1000
Cc1ccc(NC(=O)[C@H]2CCO[C@H](C(C)C)C2)cc1-c1cc(-c2ccnc(NC(=O)C3CC3)c2)cnn1 [Example 389]	–	–	–	–	1000 to 10000	≤ 100	≤ 100

Continued, values first:

IC50 [1, 4] [nM]	IC50 [2, 5] [nM]	IC50 (Miapaca-2 cells) [nM]	IC50 [3, 6] [nM]	IC50 [1, 7] [nM]	IC50 [2, 8] [nM]	IC50 [3, 9] [nM]	SMILES
1000 to 10000	≤ 100	1000 to 10000	≤ 100	–	–	–	Cc1cc(F)c(NC(=O)c2ccnc(C(F)(F)F)c2)cc1-c1ccnc(-c2ccnc(NC=O)c2)c1 [Example 35]
1000 to 10000	≤ 100	1000 to 10000	≤ 100	–	–	–	Cc1ccc(NC(=O)c2ccnc(C(C)(C)C#N)c2)cc1-c1cccc(-c2cc(NC(=O)C3CC3)ncn2)c1 [Example 77]
–	–	1000 to 10000	–	1000 to 10000	≤ 100	100 to 500	CNC(=O)c1cc(-c2cncc(-c3cc(NC(=O)c4ccnc(C(C)(C)F)c4)ccc3C)c2)ncn1 [Example 379]
–	–	1000 to 10000	–	100 to 500	≤ 100	≤ 100	Cc1ccc(NC(=O)c2ccnc(C3CC3)c2)cc1-c1cncc(-c2cc(NC(=O)C3CC3)ncn2)c1 [Example 396]
1000 to 10000	≤ 100	1000 to 10000	≤ 100	–	–	–	CC(=O)Nc1cc(-c2cc(-c3cc(NC(=O)c4ccnc(C(F)(F)F)c4)ccc3F)cc(C)n2)ccn1 [Example 65]
1000 to 10000	≤ 100	1000 to 10000	≤ 100	–	–	–	CC(=O)Nc1cc(-c2cc(-c3cc(NC(=O)c4ccnc(C(C)(C)C#N)c4)c(F)cc3C)ccn2)ccn1 [Example 75]
–	–	–	–	1000 to 10000	≤ 100	100 to 500	CNC(=O)c1cc(-c2ccnc(-c3cc(NC(=O)c4ccnc(C(C)(C)F)c4)ccc3C)c2)ccn1 [Example 378]
–	–	100 to 500	–	500 to 1000	≤ 100	≤ 100	Cc1ccc(NC(=O)c2ccnc(C3(C#N)CC3)c2)cc1-c1cncc(-c2cc(NC(=O)C3CC3)ncn2)c1 [Example 395]
–	–	100 to 500	–	1000 to 10000	≤ 100	≤ 100	Cc1ccc(NC(=O)c2ccnc(C(F)(F)F)c2)cc1-c1cncc(-c2cc(NC(=O)C3CC3)ncn2)c1 [Example 397]
–	–	–	–	1000 to 10000	≤ 100	≤ 100	COC(=O)Nc1cc(-c2cnnc(-c3cc(NC(=O)c4ccnc(C(C)(C)F)c4)ccc3C)c2)ccn1 [Example 375]
–	–	1000 to 10000	–	1000 to 10000	≤ 100	≤ 100	COC(=O)Nc1cc(-c2nccc(-c3cc(NC(=O)c4ccnc(C(C)(C)F)c4)ccc3C)n2)ccn1 [Example 391]
1000 to 10000	≤ 100	1000 to 10000	≤ 100	–	–	–	Cc1ccc(NC(=O)c2ccnc(C(F)(F)F)c2)cc1-c1ccnc(-c2ccnc(NC(=O)C3CC3)c2)c1 [Example 54]
–	–	–	–	500 to 1000	≤ 100	≤ 100	Cc1cc(F)c(NC(=O)c2ccnc(C(C)(C)F)c2)cc1-c1cncc(-c2ccnc(NC(=O)C3CC3)c2)c1 [Example 399]
–	–	–	–	1000 to 10000	≤ 100	100 to 500	COC(=O)Nc1cc(-c2cc(-c3cc(NC(=O)c4ccnc(C(C)(C)F)c4)c(F)cc3C)cc(C)n2)ccn1 [Example 386]
–	–	–	–	1000 to 10000	≤ 100	≤ 100	COC(=O)Nc1cc(-c2ccnc(-c3cc(NC(=O)c4ccnc(C(C)(C)F)c4)ccc3C)n2)ccn1 [Example 403]
–	–	–	–	1000 to 10000	≤ 100	≤ 100	COC(=O)Nc1cc(-c2cccc(-c3cc(NC(=O)c4ccnc(C(C)(C)F)c4)cnc3C)c2)ccn1 [Example 402]
–	–	–	–	1000 to 10000	≤ 100	≤ 100	Cc1ccc(NC(=O)c2ccnc(C(C)(C)F)c2)cc1-c1cncc(-c2ccnc(C(N)=O)c2)c1 [Example 380]
